Reference: ChEMBL document CHEMBL1201862, “PubChem BioAssay data set” (2004)
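Exposure lasted 48 hours, with cells grown in 96-well plates and compounds tested at five concentrations. GI50 = concentration required for 50% inhibition of growth.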 Active and inactive are the calls of the source. No stated cut-off is given here; in the data, active = GI50 up to about 1.1 µM and inactive = higher.

Columns and labels:
Assay in all cases: NCI tumour cell line growth inhibition, 48 h
786-0 = tested on: 786-0
A498 = tested on: A498
A549 = tested on: A549
ACHN = tested on: ACHN
CAKI-1 = tested on: CAKI-1
COLO 205 = tested on: COLO 205
DLD-1 = tested on: DLD-1
DMS-114 = tested on: DMS-114
DMS-273 = tested on: DMS-273
EKVX = tested on: EKVX
HCC 2998 = tested on: HCC 2998
HCT-116 = tested on: HCT-116
HCT-15 = tested on: HCT-15
HL-60 = tested on: HL-60
HOP-18 = tested on: HOP-18
HOP-62 = tested on: HOP-62
HOP-92 = tested on: HOP-92
HT-29 = tested on: HT-29
IGROV-1 = tested on: IGROV-1
K562 = tested on: K562
KM-20L2 = tested on: KM-20L2
KM12 = tested on: KM12
LOX IMVI = tested on: LOX IMVI
LXFL 529 = tested on: LXFL 529
M14 = tested on: M14
M19-MEL = tested on: M19-MEL
MOLT-4 = tested on: MOLT-4
Malme-3M = tested on: Malme-3M
NCI-H226 = tested on: NCI-H226
NCI-H23 = tested on: NCI-H23
NCI-H460 = tested on: NCI-H460
NCI-H522 = tested on: NCI-H522
OVCAR-3 = tested on: OVCAR-3
OVCAR-4 = tested on: OVCAR-4
OVCAR-5 = tested on: OVCAR-5
OVCAR-8 = tested on: OVCAR-8
RXF 393 = tested on: RXF 393
RXF 631 = tested on: RXF 631
SF-268 = tested on: SF-268
SF-295 = tested on: SF-295
SF-539 = tested on: SF-539
SK-MEL-28 = tested on: SK-MEL-28
SK-MEL-2 = tested on: SK-MEL-2
SK-MEL-5 = tested on: SK-MEL-5
SN12C = tested on: SN12C
SNB-19 = tested on: SNB-19
SNB-75 = tested on: SNB-75
SNB-78 = tested on: SNB-78
SW-620 = tested on: SW-620
TK-10 = tested on: TK-10
U-251 = tested on: U-251
UACC-257 = tested on: UACC-257
UACC-62 = tested on: UACC-62
UO-31 = tested on: UO-31
XF498 = tested on: XF498
CCRF-CEM = tested on: CCRF-CEM
MCF7 = tested on: MCF7
SK-OV-3 = tested on: SK-OV-3
SR = tested on: SR

## CCOC(=O)C1S/C(=N/c2ccc(Cl)cc2C)N=C1C (centres undefined)
786-0
  GI50: 15.9 µM (inactive)
A498
  GI50: 37.1 µM (inactive)
A549
  GI50: 21.4 µM (inactive)
ACHN
  GI50: 19.8 µM (inactive)
CAKI-1
  GI50: 20.7 µM (inactive)
COLO 205
  GI50: 17.1 µM (inactive)
DLD-1
  GI50: 15.1 µM (inactive)
DMS-114
  GI50: 12.9 µM (inactive)
DMS-273
  GI50: 24.2 µM (inactive)
EKVX
  GI50: 32.2 µM (inactive)
HCC 2998
  GI50: 20.7 µM (inactive)
HCT-116
  GI50: 15.1 µM (inactive)
HCT-15
  GI50: 18.5 µM
HL-60
  GI50: 4.34 µM (inactive)
HOP-18
  GI50: 45.8 µM (inactive)
HOP-62
  GI50: 24.8 µM (inactive)
HOP-92
  GI50: 15.5 µM (inactive)
HT-29
  GI50: 16.1 µM (inactive)
IGROV-1
  GI50: 25.1 µM (inactive)
K562
  GI50: 17.7 µM (inactive)
KM-20L2
  GI50: 17.4 µM (inactive)
KM12
  GI50: 15.5 µM (inactive)
LOX IMVI
  GI50: 15 µM (inactive)
LXFL 529
  GI50: 18 µM (inactive)
M14
  GI50: 19.5 µM (inactive)
M19-MEL
  GI50: 20 µM (inactive)
MOLT-4
  GI50: 9.77 µM (inactive)
Malme-3M
  GI50: 20.2 µM (inactive)
NCI-H226
  GI50: 24 µM (inactive)
NCI-H23
  GI50: 16.5 µM (inactive)
NCI-H460
  GI50: 22 µM (inactive)
NCI-H522
  GI50: 13.3 µM (inactive)
OVCAR-3
  GI50: 20.8 µM (inactive)
OVCAR-4
  GI50: 19.9 µM (inactive)
OVCAR-5
  GI50: 18.1 µM (inactive)
OVCAR-8
  GI50: 28.1 µM (inactive)
RXF 393
  GI50: 15.3 µM (inactive)
RXF 631
  GI50: 21.1 µM (inactive)
SF-268
  GI50: 15.7 µM (inactive)
SF-295
  GI50: 23.8 µM (inactive)
SF-539
  GI50: 17.6 µM (inactive)
SK-MEL-28
  GI50: 25.2 µM (inactive)
SK-MEL-2
  GI50: 16.4 µM (inactive)
SK-MEL-5
  GI50: 16.2 µM (inactive)
SN12C
  GI50: 18.5 µM (inactive)
SNB-19
  GI50: 26.6 µM (inactive)
SNB-75
  GI50: 23.6 µM (inactive)
SNB-78
  GI50: 20.4 µM (inactive)
SW-620
  GI50: 22.3 µM (inactive)
TK-10
  GI50: 24.7 µM (inactive)
U-251
  GI50: 15.8 µM (inactive)
UACC-257
  GI50: 22.2 µM (inactive)
UACC-62
  GI50: 14.1 µM (inactive)
UO-31
  GI50: 17.3 µM (inactive)
XF498
  GI50: 20.9 µM (inactive)

## COc1cccc2c1C(=O)c1c(O)c3c(c(O)c1C2=O)C[C@@](O)(C(C)O)C[C@@H]3OC1CC(N)C(O)C(C)O1 (some centres undefined)
786-0
  GI50: 0.644 µM (active)
A498
  GI50: 2.18 µM (inactive)
A549
  GI50: 0.946 µM (active)
ACHN
  GI50: 1.51 µM (inactive)
CAKI-1
  GI50: 0.408 µM (active)
CCRF-CEM
  GI50: 0.148 µM (active)
COLO 205
  GI50: 1.41 µM (inactive)
DLD-1
  GI50: 2.99 µM (inactive)
DMS-114
  GI50: 0.163 µM (active)
DMS-273
  GI50: 0.569 µM (active)
EKVX
  GI50: 1.18 µM (inactive)
HCC 2998
  GI50: 1.68 µM (inactive)
HCT-116
  GI50: 0.805 µM (active)
HCT-15
  GI50: 8.28 µM
HL-60
  GI50: 0.171 µM (active)
HOP-18
  GI50: 0.00497 µM (active)
HOP-62
  GI50: 0.861 µM (active)
HOP-92
  GI50: 0.502 µM (active)
HT-29
  GI50: 2.21 µM (inactive)
IGROV-1
  GI50: 2.2 µM (inactive)
K562
  GI50: 1.12 µM (active)
KM-20L2
  GI50: 3.24 µM (inactive)
KM12
  GI50: 2.24 µM (inactive)
LOX IMVI
  GI50: 0.524 µM (active)
LXFL 529
  GI50: 1.02 µM (active)
M14
  GI50: 3.02 µM (inactive)
M19-MEL
  GI50: 1.16 µM (inactive)
MCF7
  GI50: 0.738 µM (active)
MOLT-4
  GI50: 0.105 µM (active)
Malme-3M
  GI50: 0.491 µM (active)
NCI-H226
  GI50: 0.607 µM (active)
NCI-H23
  GI50: 0.553 µM (active)
NCI-H460
  GI50: 0.329 µM (active)
NCI-H522
  GI50: 0.57 µM (active)
OVCAR-3
  GI50: 2.4 µM (inactive)
OVCAR-4
  GI50: 4.99 µM (inactive)
OVCAR-5
  GI50: 3.3 µM (inactive)
OVCAR-8
  GI50: 1.14 µM (inactive)
RXF 393
  GI50: 1.47 µM (inactive)
RXF 631
  GI50: 2 µM (inactive)
SF-268
  GI50: 1.05 µM (active)
SF-295
  GI50: 1.26 µM (inactive)
SF-539
  GI50: 0.869 µM (active)
SK-MEL-28
  GI50: 1.42 µM (inactive)
SK-MEL-2
  GI50: 1.41 µM (inactive)
SK-MEL-5
  GI50: 0.834 µM (active)
SK-OV-3
  GI50: 2.72 µM (inactive)
SN12C
  GI50: 0.993 µM (active)
SNB-19
  GI50: 0.883 µM (active)
SNB-75
  GI50: 0.00982 µM (active)
SNB-78
  GI50: 1.88 µM (inactive)
SR
  GI50: 0.16 µM (active)
SW-620
  GI50: 1.05 µM (active)
TK-10
  GI50: 2.5 µM (inactive)
U-251
  GI50: 0.885 µM (active)
UACC-257
  GI50: 1.42 µM (inactive)
UACC-62
  GI50: 1.34 µM (inactive)
UO-31
  GI50: 38.5 µM (inactive)
XF498
  GI50: 0.614 µM (active)
